Measurements from ChEMBL document CHEMBL1126699, “Structure-activity relationships in 1,4-benzodioxan-related compounds. 4. Effect of aryl and alkyl substituents at position 3 on alpha-adrenoreceptor blocking activity” (J Med Chem, 1993).

Assays:
[1] = target: T1, Adrenergic receptor alpha-2 (Rattus norvegicus, UniProt P22086+P19328+P22909); assay: Tested for the alpha-2-adrenoceptor blocking activity by antagonism of clonidine-induced depression of the twitch responses of the field-stimulated prostatic portion of isolated rat vas deferens (inactive up to 30 uM); assay type: functional, tissue-based
T1 sequence (P22086 whole entry): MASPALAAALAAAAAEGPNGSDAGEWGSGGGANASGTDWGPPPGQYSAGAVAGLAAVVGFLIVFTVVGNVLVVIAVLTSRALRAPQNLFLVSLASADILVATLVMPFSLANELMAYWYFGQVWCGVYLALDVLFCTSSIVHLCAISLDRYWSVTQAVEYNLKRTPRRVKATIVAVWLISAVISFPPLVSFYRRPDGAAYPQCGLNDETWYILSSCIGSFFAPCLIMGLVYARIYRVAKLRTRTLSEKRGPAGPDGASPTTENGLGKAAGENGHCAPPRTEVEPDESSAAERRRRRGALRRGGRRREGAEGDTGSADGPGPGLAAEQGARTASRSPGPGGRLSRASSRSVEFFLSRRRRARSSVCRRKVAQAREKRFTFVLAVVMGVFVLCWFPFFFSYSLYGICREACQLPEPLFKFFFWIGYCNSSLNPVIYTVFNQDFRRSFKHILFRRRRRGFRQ
T1 sequence (P19328 whole entry): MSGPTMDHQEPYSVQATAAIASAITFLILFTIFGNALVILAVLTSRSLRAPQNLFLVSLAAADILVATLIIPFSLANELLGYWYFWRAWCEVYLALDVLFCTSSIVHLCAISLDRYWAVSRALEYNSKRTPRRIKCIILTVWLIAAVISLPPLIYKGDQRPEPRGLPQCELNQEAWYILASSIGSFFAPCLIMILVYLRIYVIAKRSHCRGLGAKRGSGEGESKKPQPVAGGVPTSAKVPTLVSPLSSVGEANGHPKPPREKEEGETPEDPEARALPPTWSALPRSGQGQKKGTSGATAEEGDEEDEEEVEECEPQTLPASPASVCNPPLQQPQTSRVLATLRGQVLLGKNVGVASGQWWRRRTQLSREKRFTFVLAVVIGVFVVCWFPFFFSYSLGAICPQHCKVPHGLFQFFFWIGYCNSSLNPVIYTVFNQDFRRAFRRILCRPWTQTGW
T1 sequence (P22909 whole entry): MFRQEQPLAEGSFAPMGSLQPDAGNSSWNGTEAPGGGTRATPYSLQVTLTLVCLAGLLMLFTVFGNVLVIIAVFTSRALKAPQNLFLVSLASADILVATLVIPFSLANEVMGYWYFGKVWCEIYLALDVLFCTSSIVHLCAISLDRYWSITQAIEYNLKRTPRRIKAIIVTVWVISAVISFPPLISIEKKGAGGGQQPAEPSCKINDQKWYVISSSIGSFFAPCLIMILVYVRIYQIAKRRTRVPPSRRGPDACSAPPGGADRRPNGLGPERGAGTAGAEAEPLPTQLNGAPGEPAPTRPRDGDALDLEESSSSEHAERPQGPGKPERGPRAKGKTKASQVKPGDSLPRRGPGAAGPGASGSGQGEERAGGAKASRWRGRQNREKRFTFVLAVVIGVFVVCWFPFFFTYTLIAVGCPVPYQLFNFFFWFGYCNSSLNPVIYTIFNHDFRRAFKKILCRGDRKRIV

[2] = target: T2, Adrenergic receptor alpha-1 (Rattus norvegicus, UniProt P15823+P23944+P43140); assay: Ex vivo alpha-1-adrenoceptor blocking activity by antagonism of (-)-norepinephrine -induced contractions of the epididymal portion of isolated rat vas deferens.; assay type: functional
T2 sequence (P15823 whole entry): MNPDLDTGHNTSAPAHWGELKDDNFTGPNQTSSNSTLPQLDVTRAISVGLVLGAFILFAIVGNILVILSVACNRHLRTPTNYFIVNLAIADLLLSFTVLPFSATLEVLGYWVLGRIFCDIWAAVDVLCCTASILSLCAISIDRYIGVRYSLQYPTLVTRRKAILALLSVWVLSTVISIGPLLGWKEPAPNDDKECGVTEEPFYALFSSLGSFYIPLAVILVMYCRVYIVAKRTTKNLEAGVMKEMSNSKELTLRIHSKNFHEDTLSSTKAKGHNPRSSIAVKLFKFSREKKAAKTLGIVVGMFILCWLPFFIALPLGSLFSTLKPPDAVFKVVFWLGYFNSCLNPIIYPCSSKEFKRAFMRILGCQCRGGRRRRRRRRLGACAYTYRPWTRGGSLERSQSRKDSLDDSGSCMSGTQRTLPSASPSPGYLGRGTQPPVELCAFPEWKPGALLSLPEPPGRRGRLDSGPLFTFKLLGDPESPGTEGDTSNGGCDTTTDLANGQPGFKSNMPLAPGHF
T2 sequence (P23944 whole entry): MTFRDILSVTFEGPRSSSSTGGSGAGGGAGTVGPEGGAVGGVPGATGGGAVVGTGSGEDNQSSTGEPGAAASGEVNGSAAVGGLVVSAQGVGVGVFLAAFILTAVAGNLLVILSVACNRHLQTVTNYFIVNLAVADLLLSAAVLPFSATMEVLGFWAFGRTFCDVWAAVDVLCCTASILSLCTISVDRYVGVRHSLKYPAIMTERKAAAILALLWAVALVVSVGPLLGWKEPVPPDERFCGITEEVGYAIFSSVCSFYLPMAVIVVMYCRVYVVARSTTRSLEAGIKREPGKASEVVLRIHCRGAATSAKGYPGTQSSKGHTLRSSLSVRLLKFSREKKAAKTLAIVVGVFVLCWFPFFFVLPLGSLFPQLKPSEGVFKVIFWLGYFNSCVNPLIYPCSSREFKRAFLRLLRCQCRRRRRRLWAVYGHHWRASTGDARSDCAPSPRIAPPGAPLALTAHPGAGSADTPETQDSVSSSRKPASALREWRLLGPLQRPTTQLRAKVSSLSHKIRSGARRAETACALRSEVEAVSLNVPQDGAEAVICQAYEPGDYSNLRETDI
T2 sequence (P43140 whole entry): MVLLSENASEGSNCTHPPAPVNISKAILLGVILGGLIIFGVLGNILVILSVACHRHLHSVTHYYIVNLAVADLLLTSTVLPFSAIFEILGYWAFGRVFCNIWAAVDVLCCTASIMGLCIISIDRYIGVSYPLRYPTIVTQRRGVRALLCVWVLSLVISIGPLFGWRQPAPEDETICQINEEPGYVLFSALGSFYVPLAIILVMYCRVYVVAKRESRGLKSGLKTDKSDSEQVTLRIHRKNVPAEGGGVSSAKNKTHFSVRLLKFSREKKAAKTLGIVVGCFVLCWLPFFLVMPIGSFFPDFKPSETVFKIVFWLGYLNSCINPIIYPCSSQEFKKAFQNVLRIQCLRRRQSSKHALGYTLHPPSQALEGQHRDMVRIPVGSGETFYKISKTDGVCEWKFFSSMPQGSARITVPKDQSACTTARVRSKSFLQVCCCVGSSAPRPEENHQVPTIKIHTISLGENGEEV

[3] = target: Adrenergic receptor alpha (Rattus norvegicus) (UniProt P15823+P23944+P43140+P22086+P19328+P22909); assay: Selectivity ratio is the antilog of the difference between pA2 values at alpha1- and alpha2- adrenoceptors
[4] = target: T1, Adrenergic receptor alpha-2; assay: Tested for the alpha-2-adrenoceptor blocking activity by antagonism of clonidine-induced depression of the twitch responses of the field-stimulated prostatic portion of isolated rat vas deferens; assay type: functional, tissue-based
[5] = target: T1, Adrenergic receptor alpha-2; assay: Tested for the alpha-2-adrenoceptor blocking activity by antagonism of clonidine-induced depression of the twitch responses of the field-stimulated prostatic portion of isolated rat vas deferens; inactive uM; assay type: functional
[6] = target: T1, Adrenergic receptor alpha-2; assay: Tested for the alpha-2-adrenoceptor blocking activity by antagonism of clonidine-induced depression of the twitch responses of the field-stimulated prostatic portion of isolated rat vas deferens; at concentration 30 uM; assay type: functional

pA2 [1] | pA2 [2] | Ratio [3] | pA2 [4] | pA2 [5] | pA2 [6] | Compound
 | 8.5 | 630 | 5.7 |  |  | COc1cccc(OC)c1OCCNC[C@H]1Oc2ccccc2O[C@H]1C
 | 9.26 | 740 | 6.39 |  |  | COc1cccc(OC)c1OCCNCC1COc2ccccc2O1 (stereo unspecified)
 | 8.69 | 21000 | 4.37 |  |  | COc1cccc(OC)c1OCCNC[C@H]1Oc2ccccc2O[C@@H]1c1ccc(C)cc1
 | 7.94 | 30 | 6.46 |  |  | COc1cccc(OC)c1OCCNC[C@H]1Oc2ccccc2O[C@@H]1C
< 4.52 | 6.09 | > 40 |  |  |  | COc1cccc(OC)c1OCCNC[C@H]1Oc2ccccc2O[C@@H]1C1CCCCC1
 | 5.94 | 2 | 5.76 |  |  | COc1cccc(OC)c1OCCNC[C@H]1Oc2ccccc2O[C@H]1C(C)C
 | 8.39 | 16000 | 4.18 |  |  | COc1cccc(OC)c1OCCNC[C@H]1Oc2ccccc2O[C@@H]1c1ccccc1
 | 6.57 | 4 | 5.94 |  |  | COc1cccc(OC)c1OCCNC[C@H]1Oc2ccccc2O[C@@H]1C(C)C
 | 7.1 | 73 |  |  | 5.24 | COc1cccc(OC)c1OCCNC[C@H]1Oc2ccccc2O[C@H]1c1ccc(C)cc1

The remaining lines, values behind:

Compound | pA2 [1] | pA2 [2] | Ratio [3] | pA2 [4] | pA2 [5] | pA2 [6]
COc1cccc(OC)c1OCCNC[C@H]1Oc2ccccc2O[C@H]1C1CCCCC1 | < 4.52 | 6.2 | > 50 |  |  | 
CCc1ccc([C@@H]2Oc3ccccc3O[C@@H]2CNCCOc2c(OC)cccc2OC)cc1 |  | 7.23 | > 500 |  | < 4.52 | 
COc1cccc(OC)c1OCCNC[C@H]1Oc2ccccc2O[C@@H]1c1ccc(OC(C)=O)cc1 |  | 8.12 | 2600 | 4.87 |  | 
COc1cccc(OC)c1OCCNC[C@H]1Oc2ccccc2O[C@H]1c1ccc(Cl)cc1 |  | 7.09 | 210 |  |  | 4.76
COc1ccc([C@H]2Oc3ccccc3O[C@@H]2CNCCOc2c(OC)cccc2OC)cc1 |  | 8.67 | > 14000 |  | < 4.52 | 
CCc1ccc([C@H]2Oc3ccccc3O[C@@H]2CNCCOc2c(OC)cccc2OC)cc1 |  | 7.82 | > 2000 |  | < 4.52 | 
COc1cccc(OC)c1OCCNC[C@H]1Oc2ccccc2O[C@@H]1c1ccc(O)cc1 |  | 7.84 | 1000 |  |  | 4.82
COc1cccc(OC)c1OCCNC[C@H]1Oc2ccccc2O[C@@H]1c1ccc(Cl)cc1 |  | 8.15 | 1000 |  |  | 5.17
